In article PMC8294059, “Identification and Immune Assessment of T Cell Epitopes in Five Plasmodium falciparum Blood Stage Antigens to Facilitate Vaccine Candidate Selection and Optimization” (Frontiers in Immunology, 2021):
Where two headings read alike, the source gives them in different places. Where a SMILES comes first, the peptide text is derived from it.

Legend:
HLA-DRB1*1501 = target: T1, HLA-DRB1*1501 (Homo sapiens, UniProt P01903+P01911); experiment: biochemical; type: binding
T1 construct: purchased
Procedure: (§1) The binding assay conducted by EpiVax yields an indirect measure of peptide-MHC affinity as it utilizes a competition assay format per the methodology described in Steere et al. ([35]). […] Post incubation, the mixtures are moved to a 96-well plate coated with anti-HLA-DR antibody to capture HLA-peptide complexes. Time-resolved fluorescence measurement of the bound labeled reference peptide complex present in each mixture is detected with a europium-linked probe via fluorescent spectrophotometry using a SpectraMax M5 system. HLA binding affinity of each test peptide is expressed as the percent inhibition of reference peptide binding. Percent inhibition values (across the test peptide titration range) are used to calculate the half maximal inhibitory concentration (IC50) of each test peptide. For these studies, test peptides were assessed using a range of final concentrations from 100,000 nM to 100 nM. The panel of commercially-available HLA-DRB1 allele monomers used includes: *0101, *0301, *0401, *0701, *0801, *1101, *1301 and *1501. EpiVax established HLA-DRB1 binding affinity cutoffs were used to rank the IC50 values.
(§2) In vitro HLA binding assays (step 2 of workflow shown in Figure 1 ) were carried out with the synthesized peptides to verify the EpiMatrix outputs and provide a measure of accuracy for comparing in silico-predicted HLA-DRB1 allele binding to laboratory assessments of HLA-DRB1 allele binding. These assessments were conducted using a competition assay format whereby IC50 values were calculated based on the ability of the test peptide to compete with a labeled, high binding affinity reference peptide for HLA-DRB1 molecule binding. Sequences for the high affinity reference peptides and the negative control peptide, known not to bind any of the HLA-DRB1 molecules, are provided in Table S18 .

HLA-DRB1*1301 = HLA-DRB1*1301 (Homo sapiens, UniProt P01903+P01911, A100E/A169T/K41T/L162R/M171V/P40S/Q125H/Q178H/Q39Y/Q99D/R42S/S66N/T262R/W38E/Y61H); experiment: biochemical; type: binding; details: read-out: DRB1*1301 IC50
Procedure: as §1, §2

HLA-DRB1*0101 = target: T2, HLA-DRB1*0101 (Homo sapiens, UniProt P01903+P01911, A100R/D57E/F55L/F60I/F76Y/I96L/L162R/M171V/P40L/Q125E/R42F/V115G/Y59C); experiment: biochemical; type: binding
T2 construct: purchased
Procedure: as §1, §2

HLA-DRB1*0701 = HLA-DRB1*0701 (Homo sapiens, UniProt P01903+P01911, A100R/A102G/A103Q/D57E/D86V/E43K/F76Y/K127E/L162R/M171V/P40G/Q125H/Q99D/R33Q/R42Y/R54Q/S133A/S66F/T210M/V115G/Y107V/Y59L/Y89S); experiment: biochemical; type: binding
Procedure: as §1, §2

HLA-DRB1*0801 = HLA-DRB1*0801 (Homo sapiens, UniProt P01903+P01911, A100R/A103L/A169T/D86S/F76Y/H45Y/I96F/K41T/L162R/M171V/P40S/Q125H/Q178H/Q39Y/Q99D/R218S/R42G/S66Y/V115G/W38E); experiment: biochemical; type: binding
Procedure: as §1, §2

HLA-A*0201 = HLA-A*0201 (Homo sapiens, UniProt P04439, D140Y/D185E/D98H/E176V/E277Q/G131W/G231S/I119V/I121R/I166T/I218V/L300P/L318F/N151K/N90K/P208A/P217A/Q86G/Q94H/R138H/R169H/T345S); experiment: In vitro class I HLA binding assay (fluorescence polarization competition); details: allele A*0201; fluorescence polarization competition; read-out: IC50 (nM), in vitro HLA binding affinity
Procedure: A cell-free class I HLA binding assay that allows for in vitro quantification of peptide-HLA binding affinity in a competition format was used. In this assay, a fluorescently labeled, high binding, control peptide is loaded onto 384-well ½-area plates along with unlabeled experimental peptides. To remove endogenous peptides and render the HLA A and B molecules receptive to binding, HLA is heated at 53°C for 15 minutes and immediately added to the assay. The mixture is then allowed to stand for three days. Once the mixture has reached steady equilibrium (at 72 hours), displacement of the high binding control peptide is measured through fluorescence polarization. Binding of experimental peptides is expressed as the percent inhibition of the labeled control peptide (experimental fluorescence / control fluorescence, multiplied by 100). The percent inhibition values for each experimental peptide (across a range of molar concentrations) are used to calculate the concentration which inhibits 50% of the labeled control peptide’s specific binding. This value is referred to as the peptide’s IC50.

HLA-DRB1*1101 = HLA-DRB1*1101 (Homo sapiens, UniProt P01903+P01911, A100R/A169T/A87E/I96F/K41T/L162R/M171V/P40S/Q125H/Q178H/Q39Y/Q99D/R42S/S66Y/T262R/V115G/W38E); experiment: biochemical; type: binding; details: binding inhibition assay; NB = non-binder (no dose-dependent inhibition); read-out: DRB1*1101 IC50
Procedure: as §1, §2

[1] = binding inhibition assay, NB = non-binder (no dose-dependent inhibition), read-out: DRB1*1501 IC50
[2] = binding inhibition assay, NB = non-binder (no dose-dependent inhibition)
[3] = binding inhibition assay, NB = non-binder (no dose-dependent inhibition), read-out: DRB1*0101 IC50
[4] = binding inhibition assay, NB = non-binder (no dose-dependent inhibition), read-out: DRB1*0701 IC50
[5] = binding inhibition assay, NB = non-binder (no dose-dependent inhibition), read-out: DRB1*0801 IC50

Chain of HLA-DRB1*1101 (P01903 26-254 limits assumed, other chains not shown): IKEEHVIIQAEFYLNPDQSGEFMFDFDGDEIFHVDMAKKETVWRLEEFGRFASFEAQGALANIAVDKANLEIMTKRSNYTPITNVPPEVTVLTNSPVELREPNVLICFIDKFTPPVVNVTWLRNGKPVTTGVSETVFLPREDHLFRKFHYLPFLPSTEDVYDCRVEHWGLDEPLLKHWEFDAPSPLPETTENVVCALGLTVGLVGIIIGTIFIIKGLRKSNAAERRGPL

SMILES	IC50 (HLA-DRB1*1501; [1]) [µM]	IC50 (HLA-DRB1*1301; [2]) [µM]	IC50 (HLA-DRB1*0101; [3]) [µM]	IC50 (HLA-DRB1*0701; [4]) [µM]	IC50 (HLA-DRB1*1101) [µM]	IC50 (HLA-DRB1*0801; [5]) [µM]	also measured
CC[C@H](C)[C@H](NC(=O)[C@H](CCSC)NC(=O)[C@H](CO)NC(=O)[C@H](C)N)C(=O)N[C@@H](CCCCN)C(=O)N[C@@H](CO)C(=O)N[C@@H](C)C(=O)N[C@@H](Cc1ccccc1)C(=O)N[C@@H](CC(C)C)C(=O)N1CCC[C@H]1C(=O)N[C@H](C(=O)NCC(=O)N[C@@H](C)C(=O)N[C@@H](Cc1ccccc1)C(=O)N[C@@H](CCCCN)C(N)=O)[C@@H](C)O [AMA1_006B] (H-ASMIKSAFLPTGAFK-NH2)	14.5	> 100	3.22	1.52			
CC[C@H](C)[C@H](NC(=O)[C@H](CCSC)NC(=O)[C@H](CO)NC(=O)[C@H](C)NC(=O)[C@H](CC(N)=O)NC(=O)[C@H](CCCCN)NC(=O)[C@H](CC(N)=O)NC(=O)[C@H](CCCCN)NC(=O)[C@H](Cc1ccccc1)NC(=O)CNC(=O)[C@H](CCC(=O)O)NC(=O)[C@H](CCCCN)NC(C)=O)C(=O)N[C@@H](CCCCN)C(=O)N[C@@H](CO)C(=O)N[C@@H](C)C(=O)N[C@@H](Cc1ccccc1)C(=O)N[C@@H](CC(C)C)C(=O)N1CCC[C@H]1C(=O)N[C@H](C(=O)NCC(=O)N[C@@H](C)C(=O)N[C@@H](Cc1ccccc1)C(=O)N[C@@H](CCCCN)C(N)=O)[C@@H](C)O [AMA1_006C] (Ac-KEGFKNKNASMIKSAFLPTGAFK-NH2)							IC50 (HLA-DRB1*0801): 50.4 µM; IC50 (HLA-DRB1*1501): 2.04 µM; IC50 (HLA-DRB1*1301): > 100 µM; IC50 (HLA-DRB1*0101): 1.2 µM; IC50 (HLA-DRB1*0701): 1.29 µM
CC[C@H](C)[C@H](NC(=O)[C@H](CO)NC(=O)[C@H](CO)NC(=O)[C@H](Cc1ccccc1)NC(=O)[C@H](CC(C)C)NC(=O)[C@@H](N)CC(N)=O)C(=O)N[C@@H](CCC(=O)O)C(=O)N[C@H](C(=O)N[C@H](C(=O)O)C(C)C)[C@@H](C)CC [AMA1_092] (H-NLFSSIEIV-OH)							IC50 (HLA-A*0201): 1550 nM
CSCC[C@H](NC(=O)[C@H](Cc1ccc(O)cc1)NC(=O)[C@H](CCC(=O)O)NC(=O)[C@@H](NC(=O)[C@H](Cc1c[nH]c2ccccc12)NC(=O)[C@@H]1CCCN1C(=O)[C@H](CC(N)=O)NC(=O)CNC(=O)[C@H](CCSC)NC(=O)[C@@H](N)Cc1ccc(O)cc1)[C@@H](C)O)C(=O)O [AMA1_105] (H-YMGNPWTEYM-OH)							IC50 (HLA-A*0201): 21400 nM
CC[C@H](C)[C@H](NC(=O)[C@H](CC(N)=O)NC(=O)[C@H](CC(N)=O)NC(=O)[C@H](CCCCN)NC(=O)[C@H](Cc1c[nH]cn1)NC(=O)[C@H](CCC(=O)O)NC(=O)[C@H](CO)NC(=O)[C@H](CC(C)C)NC(=O)[C@H](CCSC)NC(=O)[C@H](C)NC(=O)[C@H](CCC(=O)O)NC(=O)[C@H](Cc1c[nH]c2ccccc12)NC(=O)[C@H](CC(C)C)NC(=O)[C@H](CCCCN)NC(=O)[C@H](CCC(=O)O)NC(C)=O)C(=O)N[C@@H](CC(N)=O)C(=O)N[C@@H](CC(N)=O)C(N)=O [EBA175_008] (Ac-EKLWEAMLSEHKNNINN-NH2)	80.6	> 100	5.61		> 100		
CC[C@H](C)[C@H](NC(C)=O)C(=O)N[C@@H](CC(C)C)C(=O)N[C@@H](C)C(=O)N[C@H](C(=O)N[C@@H](C)C(=O)N[C@H](C(=O)N[C@@H](Cc1ccc(O)cc1)C(=O)N[C@@H](CCC(=O)O)C(=O)N[C@@H](CO)C(=O)N[C@@H](CCCNC(=N)N)C(=O)N[C@H](C(=O)N[C@@H](CC(C)C)C(=O)N[C@@H](CCCCN)C(=O)N[C@@H](CCCNC(=N)N)C(=O)N[C@@H](CCCCN)C(=O)N[C@@H](Cc1ccc(O)cc1)C(=O)N[C@@H](CCCCN)C(=O)N[C@@H](CC(N)=O)C(=O)N[C@@H](CCCCN)C(=O)N[C@@H](CC(=O)O)C(=O)N[C@@H](CC(=O)O)C(=O)N[C@@H](CCCCN)C(=O)N[C@@H](CCC(=O)O)C(N)=O)[C@@H](C)CC)[C@@H](C)CC)[C@@H](C)CC [EBA175_010] (Ac-ILAIAIYESRILKRKYKNKDDKE-NH2)	0.035	4.41	0.27	6.27	44.2	17.6	
CC[C@H](C)[C@H](NC(=O)[C@H](CO)NC(=O)[C@H](CCCCN)NC(=O)[C@H](Cc1ccccc1)NC(=O)[C@H](CCC(=O)O)NC(=O)[C@H](CO)NC(=O)[C@H](Cc1ccc(O)cc1)NC(=O)[C@H](CCSC)NC(=O)[C@H](CCCCN)NC(=O)[C@H](Cc1ccc(O)cc1)NC(=O)[C@H](CC(N)=O)NC(=O)[C@H](CC(N)=O)NC(=O)CNC(=O)[C@H](CCCCN)NC(=O)[C@H](CCC(N)=O)NC(=O)[C@H](Cc1ccc(O)cc1)NC(=O)[C@H](CCC(=O)O)NC(=O)[C@H](CCC(N)=O)NC(=O)[C@H](Cc1ccc(O)cc1)NC(C)=O)C(=O)N[C@@H](CCCCN)C(N)=O [EBA175_012] (Ac-YQEYQKGNNYKMYSEFKSIK-NH2)	29.4		0.226	14		33.2	
CC[C@H](C)[C@H](NC(=O)[C@H](CC(C)C)NC(=O)[C@H](CCCCN)NC(=O)[C@H](CCCCN)NC(=O)[C@H](CCCCN)NC(=O)[C@H](CCCCN)NC(=O)[C@@H](NC(=O)[C@H](CC(N)=O)NC(=O)[C@H](Cc1ccc(O)cc1)NC(=O)[C@H](CCC(=O)O)NC(=O)[C@H](CC(=O)O)NC(C)=O)[C@@H](C)O)C(=O)N[C@@H](CCCCN)C(=O)N[C@@H](CS)C(=O)N[C@H](C(=O)N[C@@H](CCCCN)C(=O)N[C@@H](CC(N)=O)C(=O)N[C@@H](Cc1c[nH]cn1)C(=O)N[C@@H](CCC(=O)O)C(=O)N[C@@H](CC(N)=O)C(=O)N[C@@H](CC(=O)O)C(=O)N[C@@H](Cc1ccccc1)C(=O)N[C@@H](CC(N)=O)C(N)=O)[C@@H](C)CC [RH5_008] (Ac-DEYNTKKKKLIKCIKNHENDFN-NH2)	5.14		1			2.6	
CC[C@H](C)[C@H](NC(=O)[C@H](Cc1ccc(O)cc1)NC(=O)[C@H](CCC(=O)O)NC(=O)[C@H](CC(=O)O)NC(=O)[C@H](Cc1ccc(O)cc1)NC(C)=O)C(=O)N[C@@H](Cc1c[nH]cn1)C(=O)N[C@@H](CCCCN)C(=O)N[C@@H](CC(C)C)C(=O)N[C@H](C(=O)N[C@@H](CC(C)C)C(=O)N[C@@H](CO)C(=O)N[C@H](C(=O)N[C@@H](CCCCN)C(=O)N[C@@H](CO)C(=O)N[C@@H](CCCCN)C(=O)N[C@@H](CC(N)=O)C(=O)N[C@@H](CC(C)C)C(=O)N[C@@H](CC(N)=O)C(=O)N[C@@H](CCCCN)C(=O)N[C@@H](CC(=O)O)C(=O)N[C@@H](CC(C)C)C(=O)N[C@@H](CO)C(N)=O)C(C)C)[C@@H](C)CC [RH5_009] (Ac-YDEYIHKLILSVKSKNLNKDLS-NH2)	0.01	88.8	0.043	0.381	10.5	6.46	
